Experimental data from ChEMBL document CHEMBL1143456, “Identification of a potent and selective 5-HT1B receptor antagonist” (Bioorg Med Chem Lett, 2005).

Key:
[1] = target: T1, 5-hydroxytryptamine receptor 1B (Homo sapiens, UniProt P28222); test: Binding affinity against cloned human 5-hydroxytryptamine 1B receptor
[2] = target: T1, 5-hydroxytryptamine receptor 1B; test: Intrinsic activity for human 5-hydroxytryptamine 1B receptor
[3] = target: T2, 5-hydroxytryptamine receptor 1D (Homo sapiens, UniProt P28221); test: Binding affinity against cloned human 5-hydroxytryptamine 1D receptor
T2 sequence (P28221 whole entry): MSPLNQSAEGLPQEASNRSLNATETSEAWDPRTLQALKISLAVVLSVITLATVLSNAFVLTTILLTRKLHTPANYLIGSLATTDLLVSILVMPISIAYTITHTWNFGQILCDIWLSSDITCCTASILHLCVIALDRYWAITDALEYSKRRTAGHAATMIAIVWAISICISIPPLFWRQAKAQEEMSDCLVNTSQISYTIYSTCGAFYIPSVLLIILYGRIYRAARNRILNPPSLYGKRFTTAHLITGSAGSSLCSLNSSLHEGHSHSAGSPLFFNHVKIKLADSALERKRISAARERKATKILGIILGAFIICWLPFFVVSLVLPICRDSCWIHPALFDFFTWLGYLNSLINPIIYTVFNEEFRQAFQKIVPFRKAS

[4] = target: T3, 5-hydroxytryptamine receptor 1A (Homo sapiens, UniProt P08908); test: Binding affinity against cloned human 5-hydroxytryptamine 1A receptor
T3 sequence (P08908 whole entry): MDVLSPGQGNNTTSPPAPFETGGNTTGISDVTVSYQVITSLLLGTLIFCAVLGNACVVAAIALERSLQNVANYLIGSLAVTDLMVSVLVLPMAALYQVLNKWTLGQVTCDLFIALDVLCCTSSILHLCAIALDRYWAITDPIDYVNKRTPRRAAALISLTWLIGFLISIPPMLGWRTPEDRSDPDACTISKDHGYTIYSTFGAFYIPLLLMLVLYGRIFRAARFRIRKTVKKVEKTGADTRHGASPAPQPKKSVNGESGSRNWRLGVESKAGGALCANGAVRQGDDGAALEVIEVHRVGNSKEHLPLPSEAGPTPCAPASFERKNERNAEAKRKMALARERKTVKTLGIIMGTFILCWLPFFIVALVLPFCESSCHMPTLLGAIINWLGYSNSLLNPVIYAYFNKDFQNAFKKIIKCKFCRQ

[5] = target: Serotonin 1 receptors; 5-HT1B & 5-HT1D (Homo sapiens) (UniProt P28222+P28221); test: Selectivity towards human 5-hydroxytryptamine 1B receptor to that of 5-hydroxytryptamine 1D receptor; type: protein assay
[6] = organism: Homo sapiens; test: Selectivity towards human 5-hydroxytryptamine 1B receptor to that of 5-hydroxytryptamine 1A receptor
[7] = organism: Rattus norvegicus; test: Intrinsic clearance from rat liver microsomes; type: ADME, Microsome
[8] = target: T2, 5-hydroxytryptamine receptor 1D; test: Intrinsic activity for human 5-hydroxytryptamine 1D receptor
[9] = Intrinsic clearance from human liver microsomes; type: ADME, Microsome

T1 sequence (P28222 whole entry): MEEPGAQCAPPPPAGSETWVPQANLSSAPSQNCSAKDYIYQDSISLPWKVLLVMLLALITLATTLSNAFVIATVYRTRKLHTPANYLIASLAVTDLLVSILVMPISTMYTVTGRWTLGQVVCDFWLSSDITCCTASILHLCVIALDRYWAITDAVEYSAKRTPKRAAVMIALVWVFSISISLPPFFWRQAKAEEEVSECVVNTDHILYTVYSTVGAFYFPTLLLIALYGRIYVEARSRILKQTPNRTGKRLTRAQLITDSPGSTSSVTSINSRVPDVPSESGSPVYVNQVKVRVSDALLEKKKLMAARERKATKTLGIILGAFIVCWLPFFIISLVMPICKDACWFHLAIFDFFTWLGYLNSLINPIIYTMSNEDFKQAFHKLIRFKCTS

Row | Ki [1] | Intrinsic activity [2] | Ki [3] | Ki [4] | Selectivity [5] | Selectivity [6] | Intrinsic clearance [7] | Intrinsic activity [8] | Intrinsic clearance [9] | SMILES
1 | 5.01 nM | – | 15.8 nM | – | – | – | – | – | – | COc1cc2c(cc1N1C[C@@H](C)N(C)[C@@H](C)C1)N(C(=O)c1ccc(-c3ccc(-c4noc(C)n4)cc3C)cc1)CC2
2 | 5.01 nM | – | 251 nM | – | – | – | – | – | – | COc1cc2c(cc1N1C[C@@H](C)N[C@@H](C)C1)N(C(=O)c1ccc(-c3ccc(-c4ncccn4)cc3C)cc1)CC2
3 | 2 nM | 0.9 | 25.1 nM | 12.6 nM | 12 | 6 | – | 0.9 | – | COc1cc2c(cc1N1CCN(C)CC1)N(C(=O)c1ccc(-c3cccc(C)n3)c3ccccc13)CC2
4 | 3.98 nM | – | 126 nM | 501 nM | 28 | 110 | 45 mL/min/g | – | 47 mL/min/g | CCN1[C@H](C)CN(c2cc3c(cc2OC)CCN3C(=O)c2ccc(-c3cccc(C)n3)c3ccccc23)C[C@@H]1C
5 | 31.6 nM | – | 158 nM | 79.4 nM | 4.7 | 2 | – | – | – | CCCN1[C@H](C)CN(c2cc3c(cc2OC)CCN3C(=O)c2ccc(-c3cccc(C)n3)c3ccccc23)C[C@@H]1C
6 | 50.1 nM | – | 126 nM | 1000 nM | 2.8 | 21 | 12 mL/min/g | – | 14 mL/min/g | COc1cc2c(cc1N1C[C@@H](C)N[C@@H](C)C1)N(C(=O)c1ccc(-c3cccc(C)n3)c3ccccc13)CC2
7 | 12.6 nM | – | 251 nM | – | – | – | – | – | – | COc1cc2c(cc1N1C[C@@H](C)N(C)[C@@H](C)C1)N(C(=O)c1cccc(Cl)c1Cl)CC2
8 | 3.16 nM | 0.3 | 100 nM | 501 nM | 30 | 160 | 46 mL/min/g | – | 34 mL/min/g | COc1cc2c(cc1N1C[C@@H](C)N(C)[C@@H](C)C1)N(C(=O)c1ccc(-c3cccc(C)n3)c3ccccc13)CC2
9 | 0.631 nM | 0 | 15.8 nM | – | – | – | – | – | – | COc1cc2c(cc1N1C[C@@H](C)N(C)[C@@H](C)C1)N(C(=O)c1ccc(-c3ccccc3C)cc1)CC2

Further lines, the compound ahead of its results:

Row | SMILES | Ki [1] | Intrinsic activity [2] | Ki [3] | Ki [4] | Selectivity [5] | Selectivity [6] | Intrinsic clearance [7] | Intrinsic activity [8] | Intrinsic clearance [9]
10 | COc1cc2c(cc1N1C[C@@H](C)N(C)[C@@H](C)C1)N(C(=O)Nc1cccc(Cl)c1F)CC2 | 7.94 nM | 0.1 | 200 nM | – | – | – | – | – | –
11 | COc1cc2c(cc1N1C[C@@H](C)N[C@@H](C)C1)N(C(=O)c1ccc(-c3cc(C)ncc3C)cc1)CC2 | 7.94 nM | 0 | 501 nM | – | – | – | – | – | –
12 | COc1cc2c(cc1N1C[C@@H](C)N(C)[C@@H](C)C1)N(C(=O)c1cccc(Cl)c1)CC2 | 20 nM | – | 251 nM | – | – | – | – | – | –
13 | COc1cc2c(cc1N1CCN(C)CC1)N(C(=O)Cc1cccc([N+](=O)[O-])c1)CC2 | 7.94 nM | – | 31.6 nM | 158 nM | 4 | 20 | – | – | –
14 | COc1cc2c(cc1N1C[C@@H](C)N(C)[C@@H](C)C1)N(C(=O)Cc1cccc(C(F)(F)F)c1F)CC2 | 1.58 nM | 0.1 | 126 nM | – | – | – | – | – | –
15 | COc1cc2c(cc1N1C[C@@H](C)N(C)[C@@H](C)C1)N(C(=O)Nc1cccc(Cl)c1Cl)CC2 | 7.94 nM | 0.1 | 79.4 nM | – | 10 | 200 | 3 mL/min/g | 0.1 | 3 mL/min/g
16 | COc1cc2c(cc1N1C[C@@H](C)N(C)[C@@H](C)C1)N(C(=O)Nc1cccc(C(F)(F)F)c1F)CC2 | 3.98 nM | 0 | 158 nM | – | – | – | – | – | –
17 | COc1cc2c(cc1N1C[C@@H](C)N(C)[C@@H](C)C1)N(C(=O)Oc1cccc(C(F)(F)F)c1F)CC2 | 2.51 nM | 0.1 | 31.6 nM | – | – | – | – | – | –
18 | COc1cc2c(cc1N1C[C@@H](C)N[C@@H](C)C1)N(C(=O)c1ccc(-c3ccc(N4CCCC4=O)nc3C)cc1)CC2 | 5.01 nM | 0 | 398 nM | – | – | – | – | – | –
19 | COc1cc2c(cc1N1C[C@@H](C)N[C@@H](C)C1)N(C(=O)c1ccc(-c3ccc(C(C)=O)cc3C)cc1)CC2 | 3.16 nM | – | 398 nM | – | – | – | – | – | –
20 | COc1cc2c(cc1N1C[C@@H](C)N(C)[C@@H](C)C1)N(C(=O)Cc1cccc(Cl)c1F)CC2 | 2 nM | 0.1 | 100 nM | – | – | – | – | – | –
21 | COc1cc2c(cc1N1C[C@@H](C)N(C)[C@@H](C)C1)N(C(=O)Oc1cccc(C(F)(F)F)c1Cl)CC2 | 2.51 nM | 0.15 | 25.1 nM | – | – | – | – | – | –
22 | COc1cc2c(cc1N1CCN(C)CC1)N(C(=O)Nc1cccc(Cl)c1Cl)CC2 | 3.98 nM | 0.6 | 12.6 nM | 50.1 nM | 3 | 13 | – | 0.7 | –
23 | COc1cc2c(cc1N1C[C@@H](C)N(C)[C@@H](C)C1)N(C(=O)Cc1cccc([N+](=O)[O-])c1)CC2 | 15.8 nM | 0.1 | 251 nM | 2000 nM | 15 | 125 | – | 0.2 | –
24 | COc1cc2c(cc1N1C[C@@H](C)N[C@@H](C)C1)N(C(=O)c1ccc(-c3ccc(-c4noc(C)n4)cc3C)cc1)CC2 | 3.16 nM | 0 | 251 nM | – | – | – | – | – | –
25 | COc1cc2c(cc1N1C[C@@H](C)N(C)[C@@H](C)C1)N(C(=O)Nc1cccc(C(F)(F)F)c1Cl)CC2 | 2.51 nM | 0 | 50.1 nM | – | – | – | – | – | –
26 | CN1CCN(c2cc3c(cc2Cl)CCN3C(=O)Nc2ccc(-c3ccncc3)c3ccccc23)CC1 | 3.98 nM | – | 1 nM | 3.98 nM | 0.25 | 1 | – | – | –
27 | COc1cc2c(cc1N1C[C@@H](C)N(C)[C@@H](C)C1)N(C(=O)Cc1cccc(F)c1C(F)(F)F)CC2 | 3.16 nM | 0.1 | 200 nM | – | – | – | – | – | –
